The values that follow come from patent US9023882B2, “5-membered nitrogen containing heterocyclic derivatives and pharmaceutical compositions comprising the same” (Kissei Pharmaceutical Co., Ltd., priority 2007, dated 2015).

Sequence of Xanthine oxidase (from bovine milk, Sigma) (P80457 whole entry): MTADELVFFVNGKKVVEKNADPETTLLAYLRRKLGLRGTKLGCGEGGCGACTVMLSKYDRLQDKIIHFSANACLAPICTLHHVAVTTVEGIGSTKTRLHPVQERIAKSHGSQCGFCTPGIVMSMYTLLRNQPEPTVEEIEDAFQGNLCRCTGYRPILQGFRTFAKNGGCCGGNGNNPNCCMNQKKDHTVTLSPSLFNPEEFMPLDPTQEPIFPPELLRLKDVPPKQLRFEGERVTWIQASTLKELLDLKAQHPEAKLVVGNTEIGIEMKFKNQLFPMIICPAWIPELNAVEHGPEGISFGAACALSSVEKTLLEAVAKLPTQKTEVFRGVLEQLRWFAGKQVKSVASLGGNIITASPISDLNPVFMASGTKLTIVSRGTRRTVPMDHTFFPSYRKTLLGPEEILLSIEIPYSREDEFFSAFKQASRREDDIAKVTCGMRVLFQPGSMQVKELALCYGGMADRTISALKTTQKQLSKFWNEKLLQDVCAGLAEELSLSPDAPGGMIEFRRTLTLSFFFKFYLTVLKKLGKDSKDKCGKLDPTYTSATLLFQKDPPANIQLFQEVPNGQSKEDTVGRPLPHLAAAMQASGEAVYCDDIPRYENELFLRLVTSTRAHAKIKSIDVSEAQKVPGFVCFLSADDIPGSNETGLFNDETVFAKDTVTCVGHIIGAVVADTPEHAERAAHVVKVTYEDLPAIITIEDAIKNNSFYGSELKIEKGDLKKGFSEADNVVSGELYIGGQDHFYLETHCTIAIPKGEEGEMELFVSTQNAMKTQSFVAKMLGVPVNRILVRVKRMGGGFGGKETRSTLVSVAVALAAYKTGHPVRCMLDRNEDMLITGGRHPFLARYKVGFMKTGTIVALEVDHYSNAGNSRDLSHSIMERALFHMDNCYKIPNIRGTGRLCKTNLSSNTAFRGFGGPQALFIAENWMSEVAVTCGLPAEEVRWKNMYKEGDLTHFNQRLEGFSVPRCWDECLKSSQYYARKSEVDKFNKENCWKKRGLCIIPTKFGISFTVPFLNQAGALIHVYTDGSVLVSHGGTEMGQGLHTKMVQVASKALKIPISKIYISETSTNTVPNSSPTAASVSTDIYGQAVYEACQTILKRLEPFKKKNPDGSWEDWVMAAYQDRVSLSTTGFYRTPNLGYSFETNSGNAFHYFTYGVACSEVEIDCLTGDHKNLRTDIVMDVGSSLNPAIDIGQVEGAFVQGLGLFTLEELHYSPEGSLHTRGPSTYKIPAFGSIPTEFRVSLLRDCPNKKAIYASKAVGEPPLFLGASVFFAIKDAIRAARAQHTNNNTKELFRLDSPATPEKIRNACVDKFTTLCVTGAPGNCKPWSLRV

In the first assay the target is Xanthine oxidase (from bovine milk, Sigma) (Bos taurus (Bovine), UniProt P80457). Put plainly: Xanthine oxidase inhibitory activity. Conditions: 100 μM xanthine final, absorbance at 290 nm. The assay is classed as biochemical. As for the experimental part:
(1) Preparation of Test Compounds
Test compounds were dissolved in DMSO (Wako) at 40 mM concentration and then diluted to intended concentrations with phosphate-buffered saline (PBS).
(2) Method for Measurement
Xanthine oxidase (from bovine milk, Sigma) was prepared with phosphate-buffered saline (PBS) at 0.02 units/mL, and then the solution was added to 96 well plates at 50 μL/well. In addition, test compounds diluted with PBS were added at 50 μL/well. Xanthine (Wako) at 200 μM prepared with PBS was added at 100 μL/well, and the reaction was conducted for 10 minutes at room temperature. Absorbance at 290 nm was measured using a microplate reader SpectraMax Plus 384 (Molecular device). The absorbance under a condition without xanthine is 0%, and control without test compounds is 100%. Fifty % inhibitory concentration of a test compound (IC50) was calculated (Tables 91 to 92). Ex. No in the table indicates Example number.
One may read the IC50 as the concentration at which inhibition is half-maximal. The low end stands for inhibition by little substance, the high end for a need for much substance. Regarding `N#Cc1cn(-c2ccc(C(=O)O)c(O)c2)cc1/C=C/c1ccccc1` [Example 288], the IC50 came out at 10.4 nM.

The compound `N#Cc1cn(-c2ccc(C(=O)O)c(O)c2)cc1-c1ccc(F)cc1` [Example 320] had a 50% inhibitory concentration (IC50) of 10.6 nM.

Turning to `CCOC(=O)c1cn(-c2ccc(C(=O)O)c(O)c2)cc1C(F)(F)F` [Example 298], half-maximal inhibition (IC50) required 6.6 nM.

Turning to `N#Cc1cn(-c2ccc(C(=O)O)c(O)c2)cc1-c1cccc(Cl)c1` [Example 278], the IC50 was determined as 49.1 nM.

`COc1ccc(F)c(-c2cn(-c3ccc(C(=O)O)c(O)c3)cc2C#N)c1` [Example 284] came in with an IC50 of 9.3 nM.

As for `N#Cc1cn(-c2ccc(C(=O)O)c(O)c2)cc1Cc1ccccc1` [Example 357], the half-inhibitory concentration (IC50) was found to be 5.9 nM.

Compound `N#Cc1cn(-c2ccc(C(=O)O)c(O)c2)cc1-c1cccc(O)c1` [Example 338] gave an IC50 of 5.7 nM.

Take `Cc1ccc(-c2cn(-c3ccc(C(=O)O)c(O)c3)cc2C#N)s1` [Example 310]: the IC50 came to 17.5 nM.

The compound `O=C(O)c1ccc(-n2ccc([N+](=O)[O-])c2)cc1O` [Example 351] displayed a half-maximal inhibitory concentration (IC50) of 14.7 nM.

With `COc1ccccc1-c1cn(-c2ccc(C(=O)O)c(O)c2)cc1C#N` [Example 309], the IC50 is 6.5 nM.

As to `CCCOc1ccc(-c2cn(-c3ccc(C(=O)O)c(O)c3)cc2C#N)cc1` [Example 342], it took 35.9 nM to reach half-maximal inhibition (IC50).

`COc1ccc(/C=C/c2cn(-c3ccc(C(=O)O)c(O)c3)cc2C#N)cc1` [Example 295] showed an IC50 of 28.8 nM.

Turning to `N#Cc1cn(-c2ccc(C(=O)O)c(O)c2)cc1-c1ccc2c(c1)OCO2` [Example 321], the IC50 stood at 10.9 nM.

`Cc1cccc(-c2cn(-c3ccc(C(=O)O)c(O)c3)cc2C#N)c1` [Example 280] showed an IC50 of 15.6 nM.

With `N#Cc1cn(-c2ccc(C(=O)O)c(O)c2)cc1C(=O)O` [Example 299], inhibition was half-maximal at 7.9 nM (IC50).

In the case of `COc1ccccc1CCc1cn(-c2ccc(C(=O)O)c(O)c2)cc1C#N` [Example 294], the IC50 was 11.2 nM.

In turn, `COc1ccccc1/C=C/c1cn(-c2ccc(C(=O)O)c(O)c2)cc1C#N` [Example 293] came in with an IC50 of 15.9 nM.

Take `N#Cc1cn(-c2ccc(C(=O)O)c(O)c2)cc1-c1nccs1` [Example 348]: the IC50 was 5.2 nM.

Turning to `N#Cc1cn(-c2ccc(C(=O)O)c(O)c2)cc1-c1cccn1-c1ccccc1` [Example 304], the IC50 is 15.1 nM.

On to `CC(C)Oc1ccc(-c2cn(-c3ccc(C(=O)O)c(O)c3)cc2C#N)cc1` [Example 346], for which inhibition was half-maximal at 16.8 nM (IC50).

`Cn1cc(-c2cn(-c3ccc(C(=O)O)c(O)c3)cc2C#N)c2ccccc21` [Example 292] displayed an IC50 of 5.2 nM.

`Cc1cn(-c2ccc(C(=O)O)c(O)c2)cc1C#N` [Example 359] registered an IC50 of 6.1 nM.

With `N#Cc1cn(-c2ccc(C(=O)O)c(O)c2)cc1-c1ccccc1C(F)(F)F` [Example 312], the IC50 amounted to 9.9 nM.

In turn, `N#Cc1cn(-c2ccc(C(=O)O)c(O)c2)cc1-c1ccc(C(F)(F)F)cc1` [Example 318] came in with an IC50 of 17 nM.

The compound `CCCOc1ccccc1-c1cn(-c2ccc(C(=O)O)c(O)c2)cc1C#N` [Example 336] displayed an IC50 of 36.4 nM.

In turn, `N#Cc1cn(-c2ccc(C(=O)O)c(O)c2)cc1-c1ccccc1Oc1ccccc1` [Example 303] registered an IC50 of 49.4 nM.

`N#Cc1ccn(-c2ccc(C(=O)O)c(O)c2)c1` [Example 358] returned an IC50 of 8.8 nM.

Compound `N#Cc1cn(-c2ccc(C(=O)O)c(O)c2)cc1-c1ccccc1OCc1ccccc1` [Example 332] showed an IC50 of 51.5 nM.

With `N#Cc1cn(-c2ccc(C(=O)O)c(O)c2)cc1-c1ccc2c(c1)OCCO2` [Example 305], the IC50 worked out at 7.3 nM.

Consider `N#Cc1cn(-c2cc(C(=O)O)ccn2)cc1-c1ccc2c(c1)OCCO2` [Example 369], for which the IC50 came out at 9.7 nM.

Regarding `COc1cn(-c2ccc(C(=O)O)c(O)c2)cc1C#N` [Example 282], the IC50 came out at 5.3 nM.

On to `COCCOc1cccc(-c2cn(-c3ccc(C(=O)O)c(O)c3)cc2C#N)c1` [Example 345], for which the IC50 worked out at 25.7 nM.

Take `N#Cc1cn(-c2ccc(C(=O)O)c(O)c2)cc1-c1ccccc1Cl` [Example 308]: the IC50 amounted to 7.5 nM.

With `N#Cc1cn(-c2ccc(C(=O)O)c(O)c2)cc1-c1cccc(OCc2ccccc2)c1` [Example 333], the IC50 stood at 87.8 nM.

In turn, `COc1cccc(-c2cn(-c3cc(C(=O)O)ccn3)cc2C#N)c1` [Example 367] came in with an IC50 of 25 nM.

Consider `N#Cc1cn(-c2ccc(C(=O)O)c(O)c2)cc1-c1csc2ccccc12` [Example 291], for which half-maximal inhibition (IC50) was put at 6.4 nM.

The same assay, now with this note: 0.02 units/mL, xanthine 200 μM, 10 minutes at room temperature, absorbance at 290 nm.
For `CCCCCCc1cn(-c2ccc(C(=O)O)cc2)cc1C#N` [Example 246], the IC50 was determined as 8.9 nM.

Consider `COc1ccccc1COc1ccccc1-c1cn(-c2ccc(C(=O)O)cc2)cc1C#N` [Example 183], for which half-maximal inhibition (IC50) was put at 67.3 nM.

On to `N#Cc1cn(-c2ccc(C(=O)O)cc2)cc1-c1ccco1` [Example 244], for which the half-inhibitory concentration (IC50) was determined as 3.6 nM.

For the compound `N#Cc1cn(-c2ccc(C(=O)O)cc2)cc1-c1cccn1-c1ccccc1` [Example 255], half-maximal inhibition (IC50) required 10.1 nM.

The compound `N#Cc1cn(-c2ccc(C(=O)O)cc2)cc1-c1cccc(OCCCO)c1` [Example 150] showed an IC50 of 5 nM.

Take `Cc1ccc(-c2cn(-c3ccc(C(=O)O)c(O)c3)cc2C#N)c(C)c1` [Example 273]: half-maximal inhibition (IC50) required 14.6 nM.

For the compound `N#Cc1cn(-c2ccc(C(=O)O)cc2)cc1-c1cccc(O)c1` [Example 147], half-maximal inhibition (IC50) required 2.1 nM.

On to `N#Cc1cn(-c2ccc(C(=O)O)cc2)cc1-c1ccc(OCCO)cc1` [Example 154], for which the half-inhibitory concentration (IC50) amounted to 4 nM.

The compound `N#Cc1cccc(-c2cn(-c3ccc(C(=O)O)cc3)cc2C#N)c1` [Example 211] came in with an IC50 of 4.6 nM.

Compound `N#Cc1cn(-c2ccc(C(=O)O)cc2)cc1-c1ccc(OCc2ccccc2)cc1` [Example 157] came in with an IC50 of 33.8 nM.

The compound `Cn1cc(-c2cn(-c3ccc(C(=O)O)cc3)cc2C#N)c2ccccc21` [Example 251] came in with a half-maximal inhibitory concentration (IC50) of 23 nM.

`N#Cc1cn(-c2ccc(C(=O)O)cc2)cc1-c1ccccc1OCc1ccccc1` [Example 155] returned a concentration for half-maximal inhibition (IC50) of 52.4 nM.

As to `Cc1c(F)cccc1-c1cn(-c2ccc(C(=O)O)c(O)c2)cc1C#N` [Example 275], the IC50 stood at 7.2 nM.

For the compound `COCCOc1cccc(-c2cn(-c3ccc(C(=O)O)cc3)cc2C#N)c1` [Example 202], 6 nM corresponded to half-maximal inhibition (IC50).

With `CC(C)Cc1cn(-c2ccc(C(=O)O)cc2)cc1C#N` [Example 241], it took 3.6 nM to reach half-maximal inhibition (IC50).

Take `N#Cc1cn(-c2ccc(C(=O)O)cc2)cc1-c1cccc(OCc2cccc(Cl)c2)c1` [Example 193]: inhibition was half-maximal at 70.4 nM (IC50).

`N#Cc1cn(-c2ccc(C(=O)O)cc2)cc1/C=C/c1ccccc1` [Example 206] displayed an IC50 of 7.1 nM.

On to `COCCNC(=O)c1cn(-c2ccc(C(=O)O)cc2)cc1C#N` [Example 229], for which it took 7.2 nM to reach half-maximal inhibition (IC50).

In turn, `N#Cc1cn(-c2ccc(C(=O)O)cc2)cc1-c1ccccc1OCCO` [Example 152] yielded an IC50 of 4 nM.

`N#Cc1cn(-c2ccc(C(=O)O)cc2)cc1-c1cccc(CO)c1` [Example 219] returned an IC50 of 5 nM.

In turn, `N#Cc1cn(-c2ccc(C(=O)O)cc2)cc1Cc1ccccc1` [Example 235] showed a half-inhibitory concentration (IC50) of 8.6 nM.

`N#Cc1cn(-c2ccc(C(=O)O)cc2)cc1-c1ccccc1OCCCCO` [Example 199] registered an IC50 of 19.2 nM.

`N#Cc1cn(-c2ccc(C(=O)O)cc2)cc1-c1ccc2ccccc2c1` [Example 250] gave an IC50 of 25.6 nM.

Take `CCCc1cn(-c2ccc(C(=O)O)cc2)cc1C#N` [Example 238]: the IC50 was determined as 3.6 nM.

`Cc1ccccc1COc1ccccc1-c1cn(-c2ccc(C(=O)O)cc2)cc1C#N` [Example 167] returned an IC50 of 83.8 nM.

`N#Cc1cn(-c2ccc(C(=O)O)cc2F)cc1-c1ccccc1` [Example 203] came in with a half-maximal inhibitory concentration (IC50) of 6.6 nM.

Regarding `N#Cc1cn(-c2ccc(C(=O)O)cc2)nc1-c1csc2ccccc12` [Example 8, 4-(3-Benzo[b]thiophene-3-yl-4-cyanopyrazole-1-yl)benzoic acid], it took 7.5 nM to reach half-maximal inhibition (IC50).

Regarding `Cc1ccc(COc2cccc(-c3cn(-c4ccc(C(=O)O)cc4)cc3C#N)c2)cc1` [Example 188], half-maximal inhibition (IC50) required 132 nM.

Regarding `CC(C)COc1cn(-c2ccc(C(=O)O)cc2)cc1C#N` [Example 233], inhibition was half-maximal at 2.3 nM (IC50).

Compound `N#Cc1cn(-c2ccc(C(=O)O)cc2)cc1-c1ccc(O)cc1` [Example 148] displayed an IC50 of 2.5 nM.

`N#Cc1cn(-c2ccc(C(=O)O)cc2)cc1C(=O)c1ccccc1` [Example 224] returned an IC50 of 10.7 nM.

As for `N#Cc1cn(-c2ccc(C(=O)O)c(O)c2)cc1-c1c(F)cccc1F` [Example 274], inhibition was half-maximal at 5 nM (IC50).

The compound `N#Cc1cn(-c2ccc(C(=O)O)cc2)cc1-c1ccccc1OCc1ccccc1F` [Example 170] registered an IC50 of 37.5 nM.

In the case of `N#Cc1cn(-c2ccc(C(=O)O)cc2)cc1-c1cccc(C(=O)O)c1` [Example 217], the IC50 came to 5 nM.

`N#Cc1cn(-c2ccc(C(=O)O)cc2)cc1CCc1ccco1` [Example 258]: 3.9 nM corresponded to half-maximal inhibition (IC50).

Compound `N#Cc1cn(-c2ccc(C(=O)O)cc2)cc1-c1ccccc1OCc1ccc(Cl)cc1` [Example 179] came in with an IC50 of 143 nM.

`N#Cc1cn(-c2ccc(C(=O)O)cc2)cc1-c1csc2ccccc12` [Example 253] displayed an IC50 of 5.4 nM.

Regarding `N#Cc1cn(-c2ccc(C(=O)O)cc2)cc1-c1ccccc1OCc1cccs1` [Example 175], the IC50 was 27.7 nM.

The compound `N#Cc1cn(-c2ccc(C(=O)O)c(O)c2)cc1-c1cccc(F)c1` [Example 265] registered an IC50 of 7.3 nM.
